Experimental data as given in US10563216B2, “Compositions and methods of delivering molecules to plants” (Bloomsburg University of Pennsylvania, priority 2016, dated 2020).

Tested on: AvsYS1 avenic acid/Fe+3 transporter
Assay: Yeast growth assay in liquid medium; only iron available is Fe+3 complexed with the phytosiderophore or analog; DEY1453:pJKD1 (pYES2/AvsYS1) vs DEY1453:pYES2
Format: cell-based, Avena sativa
Conditions: for growth of yeast transformants containing pJKD1 (AvsYS1 transporter): S. cerevisiae DEY1453:pJKD1, ferric iron supplied only as complex with the substance, YNB pH 7.5, BPDS
Excerpt: AvsYS1 (Genbank FJ477297.1) was isolated using 5′RACE from the roots of iron starved oats (Avena sativa). Primers were designed by comparing one functionally confirmed phytosiderophore/Fe′ transporter (HvYS1) and other iron transport proteins. After obtaining a full-length clone, we subcloned the gene (AvsYS1) into a yeast galactose inducible expression vector (pYES2). The resultant plasmid was designated pJKD1. We obtained a yeast strain that lacks the ability to take up ferric iron, and transformed it with pYES2 and pJKD1. The transformants were grown under identical conditions in which the only iron available was in the Fe^+3/avenic acid complex.
We engineered the AvsYS1 gene into a galactose inducible expression systems vector (pYES2). Our first major result was the functional confirmation of the AvsYS1 gene. We transformed pYES2 and pJKD1 (pYES2/AvsYS1) into a strain of S. cerevisiae (DEY1453) that lacks the ability to take up Fe^+3. In the process, we developed a new assay based on growth in liquid medium. The advantage of this assay over more traditional assays used in yeast-based PS/Fe^+3 assays is that it is quantifiable. Other assays (e.g., Murata, 2006) grow yeast on a solid plate, and qualitative growth of colonies is used. With our assay, we can generate numerical data based on the density as measured by the absorbance at 600 nm. […] Further detail is provided below.
Protocols included: 53Y and 53K in DOB+FeSO4, 53Y and 53K in YNB supplemented with Avenic acid; 53Y and 53K supplemented with BPA-1-068B; 53Y and 53K in YNB w/no supplements; uninoculated YNB; uninoculated DOB.
Protocols included: 53Y and 53K, supplemented with Avenic acid, 53Y and 53K supplemented with BPA-1-068B, 53Y and 53K in YNB w/no supplements.
Strains grown in YNB/Gal, pH 7.5, Amp50, Avenic acid: Fe^+3, 5:1
Protocols included: 53Y(pYES2) and 53K(pJKD1=pYES2+AvsYS1), supplemented with Avenic acid (red arrows); 53Y and 53K supplemented with BPA-1-068B (blue arrows); 53Y and 53K in YNB w/no supplements.

| SMILES | growth of yeast transformants containing pJKD1 (AvsYS1 transporter) | growth of yeast transformants with pYES2 (no transporter) (S. cerevisiae DEY1453:pYES2, only iron available is the Fe+3 complex with the substance) | growth rate of DEY1453:pJKD1 (Fe+3 complexed with the analog, robustness compared to DEY1453:pYES2 controls) |
| --- | --- | --- | --- |
| O=C(O)C(CCO)NCCC(NCC[C@H](O)C(=O)O)C(=O)O (some centres unmarked) [avenic acid] | able to grow vigorously | could not |  |
| O=C(CC(NCCC(NCC[C@H](O)C(=O)O)C(=O)O)C(=O)O)OCc1ccccc1O (some centres unmarked) [BPA-1-068B] | able to grow |  | slower, but undeniably robust |
| O=C(O)C(CO)NCCC(NCC[C@H](O)C(=O)O)C(=O)O (some centres unmarked) [MGS-2-128BF] | supported growth as well as avenic acid |  |  |
